Measured values: paper PMC6271228, “Diethyl 2-(Phenylcarbamoyl)phenyl Phosphorothioates: Synthesis, Antimycobacterial Activity and Cholinesterase Inhibition” (Molecules, 2014)
Converted amounts (≈) assume the structure as drawn. Like-named read-outs stand apart in the source and are kept apart here.

How the values were obtained:
[1] = test system: M. kansasii 6509/96 (clinically isolated); experiment: microbe, parasite or virus in culture; format: cell-based; settings: Mycobacterium kansasii, 37 °C
[2] = biological target: T1, AChE from electric eel (Electrophorus electricus, UniProt O42275); experiment: AChE inhibition, modified Ellman's method; format: biochemical, Electrophorus electricus L.
T1 construct: Acetylcholinesterase was obtained from electric eel (Electrophorus electricus L.); from tissue; host or cells: electric eel (Electrophorus electricus L.)
Text: (§1) The ability of the tested compounds to inhibit AChE from electric eel (Electrophorus electricus L.) and BChE from equine serum was screened in vitro using modified Ellman’s method for the evaluation of cholinesterase activity. […] […]. These two standards were chosen due to their different structures. […]. The choice of these drugs with different mechanism of action can provide relevant results. All tested compounds expressed a good inhibitory activity with IC50s in low micromolar values.
(§2) The IC50 values were determined using the spectrophotometric Ellman’s method, which is a simple, rapid and direct method to determine the SH and -S-S- group content in proteins. This method is widely used for cholinesterase activity evaluation and screening of the efficiency of cholinesterase inhibitors. Cholinesterase activity is measured indirectly by quantifying the concentration of 5-thio-2-nitrobenzoic acid (TNB) ion formed in the reaction between the thiol reagent 5,5'-dithiobis-2-nitrobenzoic acid (DTNB) and thiocholine, a product of substrate hydrolysis by cholinesterase (i.e., acetylthiocholine, ATCh). All the tested compounds were dissolved in dimethyl sulfoxide (concentration 0.01 M) and then diluted in demineralised water (concentration 0.001 M and 0.0001 M). The Ellman’s method is slightly modified according to Zdrazilova et al.. Acetylcholinesterase was obtained from electric eel (Electrophorus electricus L.) and butyrylcholinesterase from equine serum.

[3] = test system: M. avium My 330/88; experiment: microbe, parasite or virus in culture; format: cell-based, Mycobacterium avium; settings: for MIC: Mycobacterium avium, 37 °C; for MIC values against M. avium: all MIC values (14 and 21 d)
[4] = biological target: T2, BChE from equine serum (Equus caballus, UniProt P81908); experiment: BChE inhibition, modified Ellman's method; format: biochemical
T2 construct: butyrylcholinesterase from equine serum; from tissue; host or cells: equine serum
Text: as §1, §2

[5] = test system: Mycobacterium tuberculosis My 331/88 (H37Rv); experiment: microbe, parasite or virus in culture; format: cell-based
[6] = test system: M. kansasii My 235/80; experiment: microbe, parasite or virus in culture; format: cell-based, Mycobacterium kansasii; settings: Mycobacterium kansasii, 37 °C
[7] = 168 h, 7 d, read-out: MIC M. kansasii 6509/96 7 d
[8] = 336 h, 14 d, read-out: MIC M. kansasii 6509/96 14 d
[9] = 504 h, 21 d, read-out: MIC M. kansasii 6509/96 21 d
[10] = MY330/88, 336 h, 14 d, read-out: MIC M. avium 330/88 14 d
[11] = MY330/88, 504 h, 21 d, read-out: MIC M. avium 330/88 21 d
[12] = 336 h, 14 d, 37 °C, read-out: MIC Mtb 331/88 (H37Rv) 14 d
[13] = 504 h, 21 d, 37 °C, read-out: MIC Mtb 331/88 (H37Rv) 21 d
[14] = MY235/80, 168 h, 7 d, read-out: MIC M. kansasii 235/80 7 d
[15] = MY235/80, 336 h, 14 d, read-out: MIC M. kansasii 235/80 14 d
[16] = MY235/80, 504 h, 21 d, read-out: MIC M. kansasii 235/80 21 d

T2 sequence (P81908 whole entry): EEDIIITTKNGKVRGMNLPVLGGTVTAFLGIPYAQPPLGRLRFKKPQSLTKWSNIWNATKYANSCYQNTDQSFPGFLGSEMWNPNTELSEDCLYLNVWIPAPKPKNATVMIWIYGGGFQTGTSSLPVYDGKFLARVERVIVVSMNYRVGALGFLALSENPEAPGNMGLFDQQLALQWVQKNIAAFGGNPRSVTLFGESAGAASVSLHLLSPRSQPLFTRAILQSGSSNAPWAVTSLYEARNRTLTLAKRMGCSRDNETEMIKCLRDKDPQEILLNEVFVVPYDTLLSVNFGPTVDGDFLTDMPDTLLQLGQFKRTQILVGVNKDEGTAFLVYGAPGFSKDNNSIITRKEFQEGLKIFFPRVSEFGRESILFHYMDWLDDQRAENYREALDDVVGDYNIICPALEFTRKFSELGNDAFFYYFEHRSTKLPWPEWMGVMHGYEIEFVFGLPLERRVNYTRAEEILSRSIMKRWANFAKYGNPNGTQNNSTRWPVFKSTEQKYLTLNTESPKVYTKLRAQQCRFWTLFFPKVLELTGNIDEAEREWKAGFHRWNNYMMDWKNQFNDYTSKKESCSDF
T1 sequence (O42275 24-633): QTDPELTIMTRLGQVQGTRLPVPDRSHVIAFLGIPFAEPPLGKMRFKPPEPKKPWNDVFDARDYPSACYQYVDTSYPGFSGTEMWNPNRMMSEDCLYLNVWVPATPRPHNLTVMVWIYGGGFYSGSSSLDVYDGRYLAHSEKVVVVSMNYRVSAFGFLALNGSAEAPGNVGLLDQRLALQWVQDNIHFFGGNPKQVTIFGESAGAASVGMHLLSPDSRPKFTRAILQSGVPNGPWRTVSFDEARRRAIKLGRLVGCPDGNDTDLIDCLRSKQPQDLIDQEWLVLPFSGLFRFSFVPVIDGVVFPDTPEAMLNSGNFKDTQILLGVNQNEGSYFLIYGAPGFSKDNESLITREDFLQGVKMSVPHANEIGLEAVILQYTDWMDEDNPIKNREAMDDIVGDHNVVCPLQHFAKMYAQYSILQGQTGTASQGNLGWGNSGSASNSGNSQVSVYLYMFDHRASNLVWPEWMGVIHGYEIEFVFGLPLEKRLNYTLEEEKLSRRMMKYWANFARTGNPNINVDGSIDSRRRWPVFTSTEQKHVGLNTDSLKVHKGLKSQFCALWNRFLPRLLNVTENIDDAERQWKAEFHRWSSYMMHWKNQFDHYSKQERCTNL

SMILES	MIC [1, 7]	MIC [1, 8]	MIC [1, 9]	IC50 [2]	MIC [3, 10]	MIC [3, 11]	IC50 [4]	MIC [5, 12]	MIC [5, 13]	MIC [6, 14]	MIC [6, 15]	MIC [6, 16]	MIC ([5]; read-out: MIC against Mtb)	MIC values against M. avium [3]
CCOP(=S)(OCC)Oc1ccc(Cl)cc1C(=O)Nc1cccc(F)c1 [1o, O-{4-Chloro-2-[(3-fluorophenyl)carbamoyl]phenyl} O,O-diethyl phosphorothioate]	250 µM (≈ 104 µg/mL)	500 µM (≈ 209 µg/mL)	500 µM (≈ 209 µg/mL)	9.94 ± 0.2 µM	500 µM (≈ 209 µg/mL)	500 µM (≈ 209 µg/mL)	11.8 ± 0.6 µM	32 µM (≈ 13.4 µg/mL)	32 µM (≈ 13.4 µg/mL)	250 µM (≈ 104 µg/mL)	500 µM (≈ 209 µg/mL)	> 500 µM	–	–
CCOP(=S)(OCC)Oc1ccc(Cl)cc1C(=O)Nc1ccc(F)cc1 [1p, O-{4-Chloro-2-[(4-fluorophenyl)carbamoyl]phenyl} O,O-diethyl phosphorothioate]	125 µM (≈ 52.2 µg/mL)	250 µM (≈ 104 µg/mL)	500 µM (≈ 209 µg/mL)	13.6 ± 1.1 µM	500 µM (≈ 209 µg/mL)	500 µM (≈ 209 µg/mL)	14.9 ± 0.8 µM	16 µM (≈ 6.69 µg/mL)	16 µM (≈ 6.69 µg/mL)	250 µM (≈ 104 µg/mL)	500 µM (≈ 209 µg/mL)	> 500 µM	–	–
CCOP(=S)(OCC)Oc1ccc(Cl)cc1C(=O)Nc1cccc(C(F)(F)F)c1 [1q, O-(4-Chloro-2-{[3-(trifluoromethyl)phenyl]carbamoyl}phenyl) O,O-diethyl phosphorothioate]	125 µM (≈ 58.5 µg/mL)	500 µM (≈ 234 µg/mL)	500 µM (≈ 234 µg/mL)	12.1 ± 0.2 µM	500 µM (≈ 234 µg/mL)	> 500 µM	19.9 ± 0.2 µM	8 µM (≈ 3.74 µg/mL)	8 µM (≈ 3.74 µg/mL)	125 µM (≈ 58.5 µg/mL)	500 µM (≈ 234 µg/mL)	> 500 µM	8 µM (≈ 3.74 µg/mL)	–
CCOP(=S)(OCC)Oc1ccc(Cl)cc1C(=O)Nc1ccc(C(F)(F)F)cc1 [1r, O-(4-Chloro-2-{[4-(trifluoromethyl)phenyl]carbamoyl}phenyl) O,O-diethyl phosphorothioate]	62.5 µM (≈ 29.2 µg/mL)	125 µM (≈ 58.5 µg/mL)	250 µM (≈ 117 µg/mL)	9.7 ± 0.18 µM	500 µM (≈ 234 µg/mL)	500 µM (≈ 234 µg/mL)	15.6 ± 0.7 µM	8 µM (≈ 3.74 µg/mL)	8 µM (≈ 3.74 µg/mL)	62.5 µM (≈ 29.2 µg/mL)	125 µM (≈ 58.5 µg/mL)	250 µM (≈ 117 µg/mL)	8 µM (≈ 3.74 µg/mL)	–
CCOP(=S)(OCC)Oc1cc(Cl)ccc1C(=O)Nc1cccc(Cl)c1 [1s, O-{5-Chloro-2-[(3-chlorophenyl)carbamoyl]phenyl} O,O-diethyl phosphorothioate]	32 µM (≈ 13.9 µg/mL)	62.5 µM (≈ 27.1 µg/mL)	125 µM (≈ 54.3 µg/mL)	9.79 ± 0.2 µM	125 µM (≈ 54.3 µg/mL)	125 µM (≈ 54.3 µg/mL)	12.5 ± 0.1 µM	16 µM (≈ 6.95 µg/mL)	32 µM (≈ 13.9 µg/mL)	32 µM (≈ 13.9 µg/mL)	125 µM (≈ 54.3 µg/mL)	125 µM (≈ 54.3 µg/mL)	–	≤ 250 µM
CCOP(=S)(OCC)Oc1cc(Cl)ccc1C(=O)Nc1ccc(Cl)cc1 [1t, O-{5-Chloro-2-[(4-chlorophenyl)carbamoyl]phenyl} O,O-diethyl phosphorothioate]	32 µM (≈ 13.9 µg/mL)	62.5 µM (≈ 27.1 µg/mL)	62.5 µM (≈ 27.1 µg/mL)	10.8 ± 0.3 µM	125 µM (≈ 54.3 µg/mL)	125 µM (≈ 54.3 µg/mL)	13.8 ± 0.05 µM	32 µM (≈ 13.9 µg/mL)	32 µM (≈ 13.9 µg/mL)	32 µM (≈ 13.9 µg/mL)	32 µM (≈ 13.9 µg/mL)	32 µM (≈ 13.9 µg/mL)	–	≤ 250 µM
